Earlier results, collected in US20220233546A1, “Neurologist Formulated Nocturnal Nootropic Founded on a Novel Theory of Brain Aging” (priority 2022, published 2022).
Read-outs that look alike come from different tables or passages of the source.

Experiments:
[1] = daily dose of 200 to 2400 mg/day
[2] = in vivo
[3] = test system: young persons with multiple sclerosis
[4] = test system: persons with Alzheimer's disease, Parkinson's disease, and multiple sclerosis; details: combination therapy including Apigenin 100 mg
plasma homocysteine = details: supplementation, human
[5] = human; saffron extract 56 mg and 84 mg
[6] = 675 mg, at 4 weeks
[7] = test system: children with autism spectrum disorder; details: combination therapy including Luteolin 100 mg
[8] = test system: amyotrophic lateral sclerosis (ALS)
multiple sclerosis = details: high doses; adjunctive therapy in multiple sclerosis
[9] = test system: persons with mild cognitive impairment
[10] = test system: neurohypophyseal hormone release
[11] = test system: persons with mild cognitive impairment; remark: listed apart in the source

## O=C(O)CCCCC1CCSS1 (racemic) [ALA, Alpha Lipoic Acid]
[1]
  safety and tolerability: safe and well-tolerated

## C/C1=C2/[N-][C@H]([C@H](CC(N)=O)[C@@]2(C)CCC(=O)NC[C@H](C)OP(=O)([O-])O[C@H]2[C@@H](O)[C@@H](n3cnc4cc(C)c(C)cc43)O[C@@H]2CO)[C@]2(C)N=C(/C(C)=C3N=C(/C=C4N=C1[C@@H](CCC(N)=O)C\4(C)C)[C@@H](CCC(N)=O)[C@]\3(C)CC(N)=O)[C@@H](CCC(N)=O)[C@]2(C)CC(N)=O.[Co+2] (stereo in doubt) [cobalamin]
[2]
  bioavailability: 50%

## O=C(O)CCCC[C@@H]1CCSS1 [(R)-Alpha Lipoic Acid]
[3]; human, in vivo
  safety and tolerability profile: good safety and tolerability profile
[3]; young persons with multiple sclerosis
  reduction of yearly rate of brain atrophy: ~70%

## O=c1cc(-c2ccc(O)cc2)oc2cc(O)cc(O)c12 [Apigenin]
[4]
  clinical course and biomarkers including abnormal protein deposition: trend towards clinical stabilization and reduction of specific biomarkers

## C[N+](C)(C)CC(=O)O [Betaine]
Plasma homocysteine
  plasma homocysteine concentrations: significant reduction

## CC(/C=C/C=C(\C)C(=O)O)=C\C=C\C=C(C)\C=C\C=C(/C)C(=O)O [Crocetin]
[5]
  bioavailability: 40%
  serum concentration of saffron isomers: detected at a significant concentration

## COc1cc(/C=C/C(=O)CC(=O)/C=C/c2ccc(O)c(OC)c2)ccc1O [Curcumin]
Adults without dementia; adults without dementia
  working memory and attention (Buschke Selective Reminding Test, Brief Visual Memory Test-Revised, Trail Making A): improves working memory and attention
Adults without dementia; brain regions including the amygdala
  post-interventional changes in pathological proteins (amyloid and tau) by positron emission tomography: significant decrease in pathological proteins

## O=C(O)[C@H](O)[C@@H](O)CO [L-Threonate]
CSF
  Threonate concentration in cerebrospinal fluid (CSF): ~100 µM
plasma
  Threonate concentration in plasma: approximately 20 μM
[6]
  increase in CSF Threonate concentration: 54%
[6]; CSF
  increase in magnesium concentration: 15%

## O=c1cc(-c2ccc(O)c(O)c2)oc2cc(O)cc(O)c12 [Luteolin]
[7]
  adaptive functioning and Aberrant Behavior Checklist subscale scores: improvement in adaptive functioning and reduction in Aberrant Behavior Checklist subscale scores
  adverse effects: no adverse effects

## COc1cc(/C=C/c2ccc(O)cc2)cc(OC)c1 [Trans-Pterostilbene]
[8]
  function and progression of neurodegenerative processes: significantly improves function in and slows progression of neurodegenerative processes

## C=C1CC[C@H](O)C/C1=C/C=C1\CCC[C@]2(C)[C@@H]([C@H](C)CCCC(C)C)CC[C@@H]12 [cholecalciferol, Cholecalciferol]
Multiple sclerosis
  brain lesions, disability and mobility: fewer new brain lesions, reduced disability, and improved mobility

## Nc1nc2ncc(CNc3ccc(C(=O)N[C@@H](CCC(=O)O)C(=O)O)cc3)nc2c(=O)[nH]1 [folic acid]
[9]
  dementia-related biomarkers (beta-amyloid, homocysteine, S-adenosylmethionine, amyloid precursor protein mRNA expression): deceases dementia-related biomarkers
[9]; pre- and post-intervention
  cognitive function (full scale IQ, verbal IQ, verbal comprehension index, working memory index): improves cognitive function

## COc1ccc2[nH]cc(CCNC(C)=O)c2c1 [melatonin, Melatonin]
[10]; higher dose melatonin 5 mg
  neurohypophyseal hormone release: inhibited
[10]; low dose melatonin 0.5 mg
  neurohypophyseal hormone release: augmented
[11]
  cognition after a battery of neurocognitive testing: significant improvement in cognition

## CC1=C(C=O)C(C)(C)CC=C1 [safranal, reference compound]
[5]
  serum concentration of saffron isomers: undetectable
